Test results: patent US20160046592A1, “PHARMACEUTICAL COMPOSITION FOR THE TREATMENT OF DIABETES” (Ajinomoto Co., Inc., priority 2013, published 2016)

System: Rat skeletal muscle-derived L6 myoblasts (differentiated into myotube cells)
Assay: Evaluation of glycogen accumulation in L6
Format: cell-based
Settings: [14C] glycogen from D-[U-C14] glucose, 3 hours incubation, 100% = compound of Example 1 of WO/2011/058154 at 30 μM
Procedure: The glycogen accumulation activity was evaluated in skeletal muscle cells according to the published article (ANALYTICAL BIOCHEMISTRY, Vol. 261: 159-163, 1998) by the following method. Rat skeletal muscle-derived L6 myoblasts (ATCC) were seeded in a 96-well collagen-coated plate (IWAKI, 4860-010) by using a growth medium (10% FBS-containing α-MEM medium (NACALAI TESQUE, INC., 21444-05)) under a condition of 4×10^4 cells/100 μL/well. After culturing under conditions of 37° C. and 5% CO2 overnight, the medium was replaced with a differentiation medium (2% FBS-containing α-MEM medium), followed by culturing for 3 days to differentiate the myoblasts into myotube cells. On the day of evaluation, the medium was replaced with a glucose-deprived medium (0.1% BSA-containing DMEM medium (Gibco, 11966)). After culturing for 4 hours, the medium was replaced with assay media (0.1% BSA-containing DMEM medium (NACALAI TESQUE, INC., 08456-65)) containing 0.6% DMSO and one of the test compounds at a concentration which was twice the final evaluation concentration at 15 μL/well. Further, an assay medium containing D-[U—C14] glucose (PerkinElmer Inc., NEC042V) at […] was added at 15 μL/well to adjust the final volume to 30 μL/well. Then, the cells were incubated under conditions of 37° C. and 5% CO2 for 3 hours. After the incubation, each medium was removed by suction with an aspirator, and the wells were rinsed with PBS at 200 μL/well twice. Then, 1 N NaOH was added at 50 μL/well, and the cells were lysed by incubation at 60° C. for 10 minutes. After the temperature of the lysed cells was returned to room temperature, each whole cell lysate and […] glycogen (Sigma-Aldrich, G8876) at 5 μL/well were added to a Multiscreen HTS (Millipore, MSFCN6B) to which 100% ethanol was added in advance at 100 μL/well, followed by incubation at 4° C. for 20 minutes. After the incubation, aspiration was conducted by using Multiscreen HTS Vacuum Manifold (Millipore), followed by rinse with 66% ethanol at 200 μL/well twice. After ethanol remaining on the filter was completely removed by drying, MicroScint40 (PerkinElmer Inc.) was added at 50 μL/well, the amount of [14C] glycogen was measured with TopCountNXT (PerkinElmer Inc.). The activity of each test compound was calculated by the following method. Specifically, the relative activity (%) was calculated as 100×(B−A)/(C−A), where A represents a value (cpm) measured for a well not containing the compound but containing only DMSO, B represents a value measured for a well containing the compound and DMSO, and C represents a value measured for a well containing the compound of Example 1 of WO/2011/058154 at a final concentration of 30 μM. EC50 representing the concentration of the compound at which an increase in activity by 50% was caused was calculated using XLfit (idbs).

For COC[C@@H]1CC[C@@H](C(=O)O)N1C(=O)c1cccc(COc2ccc(-c3cc(F)c(F)cc3SC)cc2)c1 [Example 62, (2S,5S)-1-[3-[[4-(4,5-Difluoro-2-methylsulfanyl-phenyl)phenoxy]methyl]benzoyl]-5-(methoxymethyl)pyrrolidine-2-carboxylic Acid], the EC50 was less than 300 nM.
